According to US10472677B2, “Translational dysfunction based therapeutics” (Translational Therapeutics, Inc., priority 2005, dated 2019):
pEC50: −log10 of the molar value.

Key:
[1] = molecular target: T1, eIF4E (G4E) (UniProt P06654+P63073); assay: electrospray mass spectrometry of purified G4E with Ribavirin and GTP; type: binding, mouse; conditions: mixture of Ribavirin and GTP, fourfold excess
T1 construct: made in house; host or cells: E. coli BL21 (DE-3); construct a gift of Gerhard Wagner
Description: FIG. 10. […] Mass spectra were recorded using the Agilent Technologies 1100 LC/MSD integrated liquid chromatograph single quadrupole electrospray mass spectrometer (ES-MS) operating in positive ion mode. […]; The solution was electrosprayed directly at […] using nebulizer pressure of 20 psi, drying nitrogen gas at 200° C. and 10 L/min, and capillary voltage of 4.5 kV. (a) ES-MS spectrum plotting ion abundance in 20 uL of the above mixture as a function of the mass/charge ratio is shown. […]. Thus, obtaining affinities from mass spectrometry data is confounded by these differences in ionization.

[2] = system: cyclin D1 mRNA transport in NIH 3T3 cells; assay: nucleocytoplasmic mRNA transport, fractionation with Northern / quantitative PCR; type: cell-based, mouse
Description: Cells were washed twice with PBS and lysed by slow pipetting in 0.14 M NaCl/10 mM Tris.HCl (pH 8.4)/1.5 mM MgCl2/0.5% (vol/vol) Nonidet P-40/1 mM DTT/100 units/ml RNasin (Promega) at 4° C. Lysed suspensions were centrifuged at 1,000×g for 3 min at 4° C., and the supernatant was saved as the cytoplasmic fraction. Nuclear pellets were resuspended in lysis buffer, and 1/10th volume of 3.3% (wt/vol) sodium deoxycholate and 6.6% (vol/vol) Tween 40 was added under slow vortexing, and incubated at 4° C. for 5 min. Nuclei were sedimented by centrifugation at 1,000×g for 3 min at 4° C., and the supernatant (postnuclear fraction) was added to the cytoplasmic fraction. This yielded intact nuclei, as observed by using light microscopy, with no significant cytoplasmic contamination, as evaluated using tRNA^Lys and β-actin contents. Fractionated cytoplasm was free of nuclear contamination, as indicated by absence of U6 snRNA and Sc35.
RNA from whole cells or nuclear and cytoplasmic fractions was extracted by using Trizol according to manufacturer's instructions (GIBCO). Isolated RNAs were treated with RNase-free DNase I (Promega) and 5-1 μg aliquots were resolved on 1% formaldehydeagarose gel and transferred to a positively charged nylon membrane (Roche, Nutley, N.J.). Membranes were prehybridized in ULTRAhyb buffer (Ambion) and probed with 20 μM cyclin D1 cDNA probe, 5 μM β-actin cDNA probe, 30 μM biotinylated tRNA^Lys antisense oligo probe, and 30 μM biotinylated U6 small nuclear RNA antisense oligo probe. cDNA probes were biotinylated by using BrightStar psoralen-biotin and observed by using CDP Star chemiluminescence according to the manufacturer's instructions (Ambion). Band intensity and film response were quantified by using NIH IMAGE.
Cell pellets (500 mg) were homogenized in 1 ml of ice cold lysis buffer (20 mM Hepes/10 mM magnesium acetate/100 mM potassium acetate, pH 7.5) supplemented with protease inhibitors (EDTA-free Complete, Roche) and 400 units/ml of SUPERasine (Ambion), and incubated for 30 min on ice with occasional vortexing. Lysates were sedimented at 3,000×g for 10 min at 4° C. to pellet nuclei and cell debris. Supernatants were sedimented at 12,000×g for 20 min at 4° C. to pellet mitochondria. […] RNA content of fractions was ascertained by using the ratio of absorbance at 260:280 nm. […] RNA from each fraction was quantified by spectrophotometry and 40 ng was converted into cDNA by using the Sensiscript reverse transcription kit (Qiagen, Valencia, Calif.). Quantitative real-time PCR was carried out in triplicate by using the QuantiTect SYBR green real-time PCR Kit (Qiagen) in an Opticon thermal cycler (MJ Research, Waltham, Mass.). […] Obtained real-time PCR profiles were analyzed by using Opticon software (MJ Research).

[3] = system: cyclin D1 protein in NIH 3T3 cells; assay: Western blot of total extracts of treated cells; type: cell-based, mouse
Description: Protein concentrations were determined by using bicinchoninic acid-copper reduction (Pierce) and 20-μg aliquots were resolved using SDS/PAGE, transferred to Immobilon-P membrane (Millipore), blocked, and probed by using primary antibodies against eIF4E (1:5000, Transduction Laboratories), cyclin D1 (1:500, Becton Dickinson), β-actin (1:5000, Sigma), c-myc (1:1000, Becton Dickinson), and Sc35 (1:5000, Santa Cruz Biotechnology). Bound antibodies were chemiluminescently detected by using horseradish peroxidase-conjugated secondary antibodies (Amersham Pharmacia) and SuperSignal West Pico reagent according to manufacturer's instructions (Pierce).

[4] = system: Akt; assay: Akt phosphorylation; type: cell-based; conditions: FIGS. 35 and 36

T1 sequence (P06654+P63073 fused): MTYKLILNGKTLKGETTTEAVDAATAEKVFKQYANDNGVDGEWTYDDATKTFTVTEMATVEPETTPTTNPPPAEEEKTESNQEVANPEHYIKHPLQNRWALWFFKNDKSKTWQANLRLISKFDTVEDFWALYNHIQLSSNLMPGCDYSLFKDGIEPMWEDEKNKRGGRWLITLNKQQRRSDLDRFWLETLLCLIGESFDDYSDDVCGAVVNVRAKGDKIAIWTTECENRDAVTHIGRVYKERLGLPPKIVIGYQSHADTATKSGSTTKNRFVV

`NC(=O)c1ncn([C@@H]2O[C@H](CO)[C@@H](O)[C@H]2O)n1` [Ribavirin, 1-β-D-ribofuranosyl-1,2,4-triazole-3-carboxamide] was tested, and the “binding to eIF4E observed by mass shift” value [1] was “specific binding”, the “nuclear retention of cyclin D1 mRNA” value ([2]; 0.1 μM, quantitative real-time PCR) was 2 fold and the pEC50 ([2]; Mus musculus, NIH3T3, NIH 3T3, read-out: apparent EC50 inhibition of nucleocytoplasmic cyclin D1 mRNA transport) was about 6.00. For the same compound, the “concentration of nearly complete nuclear retention of cyclin D1 mRNA” value ([2]; NIH 3T3) was 100 µM, the “nucleocytoplasmic transport of B-actin and VEGF mRNAs” value ([2]; at 100 uM) was “not affected” and the “levels of B-actin and eIF4E proteins” value [3] was “not reduced”. For the same compound, the pEC50 ([3]; Mus musculus, NIH3T3, read-out: apparent EC50 reduction of cyclin D1 protein levels) was 6.00 to 7.00 and the “effect on Akt phosphorylation” value [4] was “inhibits”.
